From PubChem BioAssay (NCI)
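Compound exposure: 48 hours, 5 concentrations, 96-well plates. The concentration for full growth arrest is given as TGI.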

Key:
Assay in all cases: NCI-60 cell line screen, 48 h
MOLT-4 leukemia = tested on: MOLT-4 leukemia
OVCAR-3 ovarian = tested on: OVCAR-3 ovarian
NCI-H23 lung = tested on: NCI-H23 lung
PC-3 prostate = tested on: PC-3 prostate
RPMI-8226 leukemia = tested on: RPMI-8226 leukemia
BT-549 breast = tested on: BT-549 breast
CAKI-1 renal = tested on: CAKI-1 renal
HOP-92 NSCLC = tested on: HOP-92 NSCLC
MDA-N = tested on: MDA-N
HT29 colon = tested on: HT29 colon
SK-MEL-2 melanoma = tested on: SK-MEL-2 melanoma
ACHN renal = tested on: ACHN renal
SF-539 CNS = tested on: SF-539 CNS
HOP-62 NSCLC = tested on: HOP-62 NSCLC
HS 578T breast = tested on: HS 578T breast
MDA-MB-231 breast = tested on: MDA-MB-231 breast
SNB-75 CNS = tested on: SNB-75 CNS
UACC-257 melanoma = tested on: UACC-257 melanoma
OVCAR-5 ovarian = tested on: OVCAR-5 ovarian
U251 CNS = tested on: U251 CNS

Cc1nc(C)c(C(=O)NNC(=O)Cc2ccccc2)cc1C(=O)NNC(=O)Cc1ccccc1
TGI (MOLT-4 leukemia): > 100 µM
TGI (OVCAR-3 ovarian): > 100 µM
TGI (NCI-H23 lung): > 100 µM
TGI (PC-3 prostate): > 100 µM
TGI (RPMI-8226 leukemia): > 100 µM
TGI (BT-549 breast): > 100 µM
TGI (CAKI-1 renal): > 100 µM
TGI (HOP-92 NSCLC): > 100 µM
TGI (MDA-N): > 100 µM
TGI (HT29 colon): > 100 µM
TGI (SK-MEL-2 melanoma): > 100 µM
TGI (ACHN renal): > 100 µM
TGI (SF-539 CNS): > 100 µM
TGI (HOP-62 NSCLC): > 100 µM
TGI (HS 578T breast): > 100 µM
TGI (MDA-MB-231 breast): > 100 µM
TGI (SNB-75 CNS): > 100 µM
TGI (UACC-257 melanoma): > 100 µM
TGI (OVCAR-5 ovarian): > 100 µM
TGI (U251 CNS): > 100 µM

CC(C)=CCC[C@@H](C)C1=C(O)C(Nc2ccccc2Br)=C(C)C(=O)C1=O
TGI (MOLT-4 leukemia): 25.5 µM
TGI (OVCAR-3 ovarian): 35.6 µM
TGI (NCI-H23 lung): 31.2 µM
TGI (PC-3 prostate): 38.6 µM
TGI (RPMI-8226 leukemia): > 58.6 µM
TGI (BT-549 breast): 50.1 µM
TGI (CAKI-1 renal): 52.1 µM
TGI (HOP-92 NSCLC): 30.8 µM
TGI (MDA-N): 27.5 µM
TGI (HT29 colon): 37 µM
TGI (SK-MEL-2 melanoma): 41.9 µM
TGI (ACHN renal): > 60.2 µM
TGI (SF-539 CNS): 25.1 µM
TGI (HOP-62 NSCLC): 36.8 µM
TGI (HS 578T breast): 49.3 µM
TGI (MDA-MB-231 breast): 61.9 µM
TGI (SNB-75 CNS): 66.2 µM
TGI (UACC-257 melanoma): 43.6 µM
TGI (OVCAR-5 ovarian): 41.9 µM
TGI (U251 CNS): 99.5 µM

CCc1n[nH]c(=S)n1/N=C\c1ccc(-c2ccccc2Cl)o1
TGI (MOLT-4 leukemia): 45.6 µM
TGI (OVCAR-3 ovarian): > 100 µM
TGI (NCI-H23 lung): 82 µM
TGI (PC-3 prostate): > 100 µM
TGI (RPMI-8226 leukemia): 51.3 µM
TGI (BT-549 breast): 66.6 µM
TGI (CAKI-1 renal): > 100 µM
TGI (HOP-92 NSCLC): > 100 µM
TGI (MDA-N): 54.1 µM
TGI (HT29 colon): > 100 µM
TGI (SK-MEL-2 melanoma): 98 µM
TGI (ACHN renal): > 100 µM
TGI (SF-539 CNS): 61.9 µM
TGI (HOP-62 NSCLC): > 100 µM
TGI (HS 578T breast): > 100 µM
TGI (MDA-MB-231 breast): > 100 µM
TGI (SNB-75 CNS): > 100 µM
TGI (UACC-257 melanoma): > 100 µM
TGI (OVCAR-5 ovarian): > 100 µM
TGI (U251 CNS): 97.4 µM

COc1cc(/C=C2\C[C@H]3[C@@H]4CC=C5C[C@@H](O)CC[C@]5(C)[C@H]4CC[C@]3(C)[C@H]2O)cc(OC)c1OC
TGI (MOLT-4 leukemia): 91.4 µM
TGI (OVCAR-3 ovarian): 88 µM
TGI (NCI-H23 lung): 58.2 µM
TGI (PC-3 prostate): 92.6 µM
TGI (RPMI-8226 leukemia): > 100 µM
TGI (BT-549 breast): 56.8 µM
TGI (CAKI-1 renal): > 100 µM
TGI (HOP-92 NSCLC): 65.8 µM
TGI (MDA-N): > 100 µM
TGI (HT29 colon): 27.6 µM
TGI (SK-MEL-2 melanoma): 32.5 µM
TGI (ACHN renal): > 100 µM
TGI (SF-539 CNS): > 100 µM
TGI (HOP-62 NSCLC): 41.3 µM
TGI (HS 578T breast): > 100 µM
TGI (MDA-MB-231 breast): 41.7 µM
TGI (SNB-75 CNS): 75.4 µM
TGI (UACC-257 melanoma): 83.1 µM
TGI (OVCAR-5 ovarian): 61.9 µM
TGI (U251 CNS): 40.8 µM

Cc1ccccc1C1CC(=O)CC(c2ccccc2C)C12C(=O)NC(=O)NC2=O (stereo not given)
TGI (MOLT-4 leukemia): > 100 µM
TGI (OVCAR-3 ovarian): > 100 µM
TGI (NCI-H23 lung): > 100 µM
TGI (PC-3 prostate): > 100 µM
TGI (RPMI-8226 leukemia): 97.4 µM
TGI (BT-549 breast): > 100 µM
TGI (CAKI-1 renal): > 100 µM
TGI (HOP-92 NSCLC): > 100 µM
TGI (MDA-N): > 82.8 µM
TGI (HT29 colon): > 100 µM
TGI (SK-MEL-2 melanoma): > 100 µM
TGI (ACHN renal): > 100 µM
TGI (SF-539 CNS): > 100 µM
TGI (HOP-62 NSCLC): > 100 µM
TGI (HS 578T breast): > 100 µM
TGI (MDA-MB-231 breast): > 100 µM
TGI (SNB-75 CNS): > 100 µM
TGI (UACC-257 melanoma): > 100 µM
TGI (OVCAR-5 ovarian): > 100 µM
TGI (U251 CNS): > 100 µM

O=C(/C=C(\O)c1ccc(Cl)cc1)C(=O)N=Nc1c(O)[nH]c2ccc(Br)cc12
TGI (MOLT-4 leukemia): 4.85 µM
TGI (OVCAR-3 ovarian): 95.9 µM
TGI (NCI-H23 lung): > 100 µM
TGI (PC-3 prostate): > 100 µM
TGI (RPMI-8226 leukemia): 92.3 µM
TGI (BT-549 breast): > 100 µM
TGI (CAKI-1 renal): > 100 µM
TGI (HOP-92 NSCLC): > 100 µM
TGI (MDA-N): > 100 µM
TGI (HT29 colon): > 100 µM
TGI (SK-MEL-2 melanoma): 41.2 µM
TGI (ACHN renal): > 100 µM
TGI (SF-539 CNS): > 100 µM
TGI (HOP-62 NSCLC): > 100 µM
TGI (HS 578T breast): > 100 µM
TGI (MDA-MB-231 breast): > 100 µM
TGI (SNB-75 CNS): > 100 µM
TGI (UACC-257 melanoma): > 100 µM
TGI (OVCAR-5 ovarian): > 100 µM
TGI (U251 CNS): > 100 µM

C=CCCCC1CCCNC1=O (stereo not given)
TGI (MOLT-4 leukemia): > 100 µM
TGI (OVCAR-3 ovarian): > 100 µM
TGI (NCI-H23 lung): > 100 µM
TGI (PC-3 prostate): > 100 µM
TGI (RPMI-8226 leukemia): > 100 µM
TGI (BT-549 breast): > 100 µM
TGI (CAKI-1 renal): > 100 µM
TGI (HOP-92 NSCLC): > 100 µM
TGI (MDA-N): > 100 µM
TGI (HT29 colon): > 100 µM
TGI (SK-MEL-2 melanoma): > 100 µM
TGI (ACHN renal): > 100 µM
TGI (SF-539 CNS): > 100 µM
TGI (HOP-62 NSCLC): > 100 µM
TGI (HS 578T breast): > 100 µM
TGI (MDA-MB-231 breast): > 100 µM
TGI (SNB-75 CNS): > 100 µM
TGI (UACC-257 melanoma): > 100 µM
TGI (OVCAR-5 ovarian): > 100 µM
TGI (U251 CNS): > 100 µM
